Measurements reported in US8226983B2, “Method for producing pulverized organic compound particle” (Activus Pharma Co., Ltd., priority 2007, dated 2012).

What was measured:
[1] = Average particle diameter by BET type specific surface area analyzer; format: physicochemical; details: for average particle diameter of the resulting particles: after pulverization; for average particle diameter of the resulting particles / average particle diameter of the starting organic compound: BET method; for average particle diameter of the starting organic compound: before pulverization; for Ave. Diameter after pulverization (nm): as Example 3
Text: The average particle diameter of the particles can be measured by conventionally used particle size measurement techniques such as a microscopic method, a screening method, a Coulter counter method, a sedimentation method, an air permeation method, and a gas adsorption method, but the average particle diameter according to the present invention means the average particle diameter measured according to a gas adsorption method. The method is based on the principle that when molecules or ions having a known size are adsorbed to the surface of the particles, the particles adsorb the molecules or ion according to the specific surface area. Thus, the method is a method of determining the specific surface area using an adsorption isotherm equation or an isotherm, and calculating the average particle diameter, and the method is excellent as a method for measuring the average particle diameter of finely pulverized particles. Next, the present invention will be described in more detail by way of Examples, but the present invention is not intended to be limited to the following Examples. The measurement of the average particle size was all carried out using a BET type specific surface area analyzer (Macsorb type MH-1201, manufactured by Mountech Co., Ltd.).

[2] = Crystallinity by X-ray diffraction; format: physicochemical; details: D8 Discover X-ray diffraction apparatus
Text: Each crystallinity of the quinolinone derivative before being finely pulverized, the quinolinone derivative obtained in Example 8 and the quinolinone derivative obtained in Comparative Example 8, was examined using an X-ray diffraction measurement apparatus (D8 Discover, manufactured by Bruker AXS, Inc.

Row | average particle diameter of the resulting particles [1] | average particle diameter of the starting organic compound [1] | SMILES | further results
1 | 109 nm | – | CCC(=O)O[C@]1(C(=O)SCF)[C@H](C)C[C@H]2[C@@H]3C[C@H](F)C4=CC(=O)C=C[C@]4(C)[C@@]3(F)[C@@H](O)C[C@@]21C [Example 23, fluticasone propionate] | –
2 | 438 nm | – | CCC(=O)O[C@]1(C(=O)SCF)[C@H](C)C[C@H]2[C@@H]3C[C@H](F)C4=CC(=O)C=C[C@]4(C)[C@@]3(F)[C@@H](O)C[C@@]21C [Comparative Example 10, fluticasone propionate] | –
3 | 70 nm | – | CCC(=O)O[C@]1(C(=O)SCF)[C@H](C)C[C@H]2[C@@H]3C[C@H](F)C4=CC(=O)C=C[C@]4(C)[C@@]3(F)[C@@H](O)C[C@@]21C [Example 22, fluticasone propionate] | –
4 | – | 1,720 nm | CC1=C(/C=C/C(C)=C/C=C/C(C)=C/C=C/C=C(C)/C=C/C=C(C)/C=C/C2=C(C)CCCC2(C)C)C(C)(C)CCC1 [β-carotene] | –
5 | – | 1,280 nm | CCCCCCCCOc1c(O)c2ccc(NC(=O)C=Cc3cc(OC)c(O)c(OC)c3)cc2n(C)c1=O [quinolinone derivative, 7-(3,5-dimethoxy-4-hydroxycinnamoylamino)-3-octyloxy-4-hydroxy-1-methyl-2(1H)-quinolinone] | crystallinity (X-ray diffraction) [2]: crystalline structures
6 | 1,060 nm | – | COc1ccc2c(c1)c(CC(=O)O)c(C)n2C(=O)c1ccc(Cl)cc1 [Comparative Example 1, indomethacin] | –
7 | 114 nm | – | CCC(=O)O[C@]1(C(=O)SCF)[C@H](C)C[C@H]2[C@@H]3C[C@H](F)C4=CC(=O)C=C[C@]4(C)[C@@]3(F)[C@@H](O)C[C@@]21C [Example 17, fluticasone propionate] | –
8 | – | 7,850 nm | CCC(=O)O[C@]1(C(=O)SCF)[C@H](C)C[C@H]2[C@@H]3C[C@H](F)C4=CC(=O)C=C[C@]4(C)[C@@]3(F)[C@@H](O)C[C@@]21C [fluticasone propionate] | –
9 | – | 18,050 nm | CC(C)Cc1ccc(C(C)C(=O)O)cc1 (stereo not drawn) [ibuprofen] | –
10 | 730 nm | – | CCC(=O)OCC(=O)[C@@]1(OC(=O)CC)[C@@H](C)C[C@H]2[C@@H]3CCC4=CC(=O)C=C[C@]4(C)[C@@]3(Cl)[C@@H](O)C[C@@]21C [Comparative Example 5, beclometasone dipropionate] | –
11 | – | 1,820 nm | CCC(=O)OCC(=O)[C@@]1(OC(=O)CC)[C@@H](C)C[C@H]2[C@@H]3CCC4=CC(=O)C=C[C@]4(C)[C@@]3(Cl)[C@@H](O)C[C@@]21C [beclometasone dipropionate] | –
12 | 92 nm | – | CCC(=O)O[C@]1(C(=O)SCF)[C@H](C)C[C@H]2[C@@H]3C[C@H](F)C4=CC(=O)C=C[C@]4(C)[C@@]3(F)[C@@H](O)C[C@@]21C [Example 21, fluticasone propionate] | –
13 | 1,900 nm | – | CC(C)Cc1ccc(C(C)C(=O)O)cc1 (stereo not drawn) [Comparative Example 14, ibuprofen] | –
14 | – | – | CCCCCCCCOc1c(O)c2ccc(NC(=O)C=Cc3cc(OC)c(O)c(OC)c3)cc2n(C)c1=O [Example 8, 7-(3,5-dimethoxy-4-hydroxycinnamoylamino)-3-octyloxy-4-hydroxy-1-methyl-2(1H)-quinolinone] | crystallinity (X-ray diffraction) [2]: crystalline structures
15 | 558 nm | – | COc1cc(C(=O)NS(=O)(=O)c2ccccc2C)ccc1Cc1cn(C)c2ccc(NC(=O)OC3CCCC3)cc12 [Comparative Example 13, zafirlukast] | –
16 | 103 nm | – | CCC(=O)O[C@]1(C(=O)SCF)[C@H](C)C[C@H]2[C@@H]3C[C@H](F)C4=CC(=O)C=C[C@]4(C)[C@@]3(F)[C@@H](O)C[C@@]21C [Example 19, fluticasone propionate] | –
17 | 94 nm | – | CCC(=O)O[C@]1(C(=O)SCF)[C@H](C)C[C@H]2[C@@H]3C[C@H](F)C4=CC(=O)C=C[C@]4(C)[C@@]3(F)[C@@H](O)C[C@@]21C [Example 20, fluticasone propionate] | –
18 | – | 10,900 nm | Clc1ccc(COC(Cn2ccnc2)c2ccc(Cl)cc2Cl)c(Cl)c1 (stereo not drawn) [miconazole] | –
19 | 570 nm | – | CC1=C(/C=C/C(C)=C/C=C/C(C)=C/C=C/C=C(C)/C=C/C=C(C)/C=C/C2=C(C)CCCC2(C)C)C(C)(C)CCC1 [Comparative Example 3, β-carotene] | –
20 | – | 3,980 nm | COc1ccc2c(c1)c(CC(=O)O)c(C)n2C(=O)c1ccc(Cl)cc1 [indomethacin] | –
21 | 620 nm | – | CCCCCCCCOc1c(O)c2ccc(NC(=O)C=Cc3cc(OC)c(O)c(OC)c3)cc2n(C)c1=O [Comparative Example 6, 7-(3,5-dimethoxy-4-hydroxycinnamoylamino)-3-octyloxy-4-hydroxy-1-methyl-2(1H)-quinolinone] | –
22 | 128 nm | – | CCCCCCCCOc1c(O)c2ccc(NC(=O)C=Cc3cc(OC)c(O)c(OC)c3)cc2n(C)c1=O [Comparative Example 7, 7-(3,5-dimethoxy-4-hydroxycinnamoylamino)-3-octyloxy-4-hydroxy-1-methyl-2(1H)-quinolinone] | –
23 | 108 nm | – | CCC(=O)O[C@]1(C(=O)SCF)[C@H](C)C[C@H]2[C@@H]3C[C@H](F)C4=CC(=O)C=C[C@]4(C)[C@@]3(F)[C@@H](O)C[C@@]21C [Example 18, fluticasone propionate] | –
24 | – | 1,060 nm | CC(=O)OCC(=O)[C@@]1(O)CC[C@H]2[C@@H]3CCC4=CC(=O)CC[C@]4(C)[C@H]3C(=O)C[C@@]21C [cortisone acetate] | Ave. Diameter before pulverization (nm) ([1]; cortisone acetate, Example 24): 1,060 nm; Ave. Diameter after pulverization (nm) ([1]; cortisone acetate, polyol Diethylene glycol): 480 nm; Ave. Diameter after pulverization (nm) ([1]; cortisone acetate, polyol Glycerin): 260 nm; Ave. Diameter after pulverization (nm) ([1]; cortisone acetate, polyol Polyethylene glycol): 590 nm; Ave. Diameter after pulverization (nm) ([1]; cortisone acetate, polyol Propylene glycol): 450 nm
25 | 651 nm | – | Clc1ccc(COC(Cn2ccnc2)c2ccc(Cl)cc2Cl)c(Cl)c1 (stereo not drawn) [Comparative Example 8, miconazole] | crystallinity (X-ray diffraction) [2]: amorphous
26 | – | 5,347 nm | COc1cc(C(=O)NS(=O)(=O)c2ccccc2C)ccc1Cc1cn(C)c2ccc(NC(=O)OC3CCCC3)cc12 [zafirlukast] | –
